BindingDB's records for doi:10.1111/cbdd.12713 (Novartis Institutes of Biomedical Research Institute, 2016)

Target: T1, Aquaporin-1 (Homo sapiens, UniProt P29972)
T1 sequence (P29972 whole entry): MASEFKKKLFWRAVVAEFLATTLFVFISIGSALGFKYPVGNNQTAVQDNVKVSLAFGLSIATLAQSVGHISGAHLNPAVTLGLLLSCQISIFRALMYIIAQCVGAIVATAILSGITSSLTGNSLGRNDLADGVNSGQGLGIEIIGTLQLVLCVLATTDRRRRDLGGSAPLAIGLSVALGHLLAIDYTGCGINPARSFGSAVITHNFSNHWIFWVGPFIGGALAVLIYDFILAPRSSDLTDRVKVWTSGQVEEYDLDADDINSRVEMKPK
Assay: Stopped-flow Assay
Protocol: Osmotic water permeability was measured at 22-24 °C bymonitoring 90° scattered light intensity at 520 nm wavelength. Measurements were made using a PiStar 180 (Applied Photophysics, UK), with a dead time of 1-2 milliseconds. Thirty minutes prior to the assay, stripped red blood cell ghosts or proteoliposomes containing purified AQP1 and stored in ice were treated with mercuric chloride (50-100 µM; positive control for inhibition) or with the various compounds usually at a concentration of 150 µM. Stock solutions of compounds were in 100% ethanol (for stripped erythrocyte membrane experiments) and in 100% DMSO (for proteoliposome experiments). An inwardly directed osmotic gradient (hyperosmotic shock) was created by mixing the vesicles maintained in Buffer A (50 mM sodium phosphate buffer pH, 100 mM NaCl, 1 mM EDTA, 0.025% sodium azide) with an equal volume of 200 mM mannitol. On the other hand, vesicles preincubated with 200 mM mannitol were mixed with Buffer A to create an outwardly

SMILES	IC50 [µM]
CNCC1Cc2cc(F)cc(-c3ccc(Cl)cc3Cl)c2O1 (stereo unspecified) [{[7-(2,4-dichlorophenyl)-5-fluoro-2,3-dihydro-1-benzofuran-2-yl]methyl}(methyl)amine (Compound 4)]	9.8
Nc1nc(NC[C@H]2CC[C@H](CNS(=O)(=O)c3ccc4ccccc4c3)CC2)nc2ccccc12	3.9
CNCC1Cc2cc(F)cc(-c3c(Cl)cccc3Cl)c2O1 (stereo unspecified) [{[7-(2,6-dichlorophenyl)-5-fluoro-2,3-dihydro-1-benzofuran-2-yl]methyl}(methyl)amine (Compound 6)]	29.4
Nc1nc(NC[C@H]2CC[C@H](CNS(=O)(=O)c3cccc4ccccc34)CC2)nc2ccccc12 [CGP 71683]	2.7
Nc1nc(NC[C@H]2CC[C@H](CNS(=O)(=O)c3cccc4c(Cl)cccc34)CC2)nc2ccccc12 [5-chloro-N-{[(1r,4r)-4-{[(4-aminoquinazolin-2-yl)amino]methyl}cyclohexyl]methyl}naphthalene-1-sulfonamide (Compound 3)]	5.8
NCC1Cc2cc(F)cc(-c3ccc(Cl)cc3Cl)c2O1 (stereo unspecified) [[7-(2,4-dichlorophenyl)-5-fluoro-2,3-dihydro-1-benzofuran-2-yl]methanamine (Compound 5)]	15.2
